These results are taken from US20120277272A1, “Ethanamine Compounds and Methods of Using the Same” (priority 2008, published 2012).

Usually melting point stands for the temperature of the solid-liquid transition. For orientation: Ki means the equilibrium dissociation constant of an inhibitor or competing ligand from its target. Usually IC50 stands for the concentration that gives 50% inhibition.

Structures can show the parent of a compound that is named as a salt. Where two headings read alike, the source gives them in different places. Where only a bound is given, the exact number is not on record here.

The target of series [1] is T1, NMDA receptor.
T1 construct: Mean Ki; Mean Maximum effect
Nature of the series: MK801 binding inhibition (NMDA receptor antagonist activity in vitro). The note with it: inhibition of MK801 binding to the NMDA receptor. On the procedure:
NMDA receptor antagonist activity can be measured in vitro by assaying a compound's ability to inhibit binding of the receptor antagonist 10,11-dihydro-5-methyl-5H-dibenzo[a,d]-cyclohepten-5,10-imine (MK801) to the receptor. The method is described by Foster and Wong, Br. J. Pharmacol. 91, 403-409 (1987).
NMDA receptor antagonist activity was measured in vitro by assaying a compound's ability to inhibit binding of the receptor antagonist 10,11-dihdro-5-methyl-5H-dibenzo[a,d]-cyclohepten-5,10-imine (MK801) to the receptor. The method is described by Foster and Wong, Br. J. Pharmacol. 91, 403-409 (1987).

Series [2] addresses Human NR1/NR2A channel (Homo sapiens, UniProt Q05586+Q12879). Nature of the series: Automated patch clamp (QPatch16) block of NR1/NR2A channel currents in CHO-1H8 cells. The format is cell-based. On the procedure: Chinese Hamster Ovary (CHO-KI) cells were transfected with Effectene^R reagent following the manufacturer's instructions. Cells were triply transfected with plasmids pTet-Off, pTRE2-pur hNR1, and pGEN IRES Hyg-hNR2A. Transfection was done in medium containing Ham's F12, 10% FBS, 2 mM L-Glutamine, 200 μM ketamine and 2 μg/ml doxycycline. 24 hours post transfection, cells were split 1:10 into medium in which 200 μM ketamine was replaced with 20 μM MK-801. After an additional 24 hours (48 hours post transfection), antibiotic selection was performed as follows: 1 μg/ml puromycin, 500 μg/ml hygromycin, and 500 μg/ml geneticin (G418). After two weeks in the selection medium (with medium changes every 3-5 days), 15-20 clones developed in the flask. These clones were pooled and cultured for one more week. Cells were then clonally plated in two 96-well plates at 1 cell/well by limiting dilution. After three weeks, cells were trypsinized and each original 96-well plate was divided into two; one plate was cultured in the presence of 2 μg/ml doxycycline and the other was cultured for assay without doxycycline. After three days, the assay plates were screened for functional NMDAR expression by stimulating with 50 μM glycine/100 μM glutamate. Two positive clones were expanded and tested for glutamate dose response with glycine fixed at 30 μM. One clone, CHO-1H8 gave robust, dose-dependent response to glutamate and was selected for further characterization.
For routine culture, CHO-1H8 cells were maintained in Ham's F-12+2 mM L-Glutamine (PAA, E15-817), 10% FBS (Sigma, F7442), 1 μg/mL puromycin (Invitrogen A1113802), 250 μg/mL hygromycin (Invitrogen 10687010), 250 μg/mL geneticin (Invitrogen 11811-098), 1 μg/mL doxycycline (Sigma D9891), and 300 μM of the NMDA-channel blocker (R)-α-amino-6,7-dimethyl-3-(phosphonomethyl)-2-quinolinepropanoic acid (CAS 170847-87-7, Swahn et al., Bioorg. Med. Chem. Lett. 1996, 1635). Cells to be used in functional assay were grown in same medium as above, but with 1 μg/mL doxycycline replaced by 2 μg/mL tetracycline (Sigma T7660) three days before induction. Growth medium was replaced every 2-3 days, i.e. Monday-Wednesday-Friday. For induction of NMDAR expression, CHO-1H8 cells were cultured without doxycycline or tetracycline (but with CAS 170847-87-7) for 48 hours in medium prepared with Tet System-Approved FBS (BD Biosciences). […]
In order to evaluate effects of test compounds as inhibitors of NR1/NR2A channels, the channels were first activated by addition of a NMDAR agonist NMDA (Sigma, M3262) and Glycine (Merck, 3570) to the extracellular bath solution. […] NR1/NR2A currents were recorded for 12 sec after activation with 100 μM NMDA/10 μM Glycine (Icontrol). […]
On the technique in general: Patch clamp records ionic current or voltage across a cell membrane.

Series [3] relates to NMDA receptor. Nature of the series: NMDA trapping. The format is cell-based. The settings on record: Table 4; as described in Mealing et al. 2001. The text has this:
Trapping data was generated as described in Mealing et al., J. Pharmacol. Exp. Therapeutics 2001, (297/3), 906-914.

[4] abbreviates: Table 1, read-out: MK801 Binding IC50.
[5] abbreviates: Table 3, listed as Ex 8, fumarate salt.
Where [6] appears, read: Table 4, NR1/NR2A currents, cells clamped at −60 mV, activated with 100 μM NMDA/10 μM Glycine, 0.41-33.33 μM compound, read-out: Mean IC50.

Chain of Human NR1/NR2A channel (Q12879 23-1464, other chains not shown): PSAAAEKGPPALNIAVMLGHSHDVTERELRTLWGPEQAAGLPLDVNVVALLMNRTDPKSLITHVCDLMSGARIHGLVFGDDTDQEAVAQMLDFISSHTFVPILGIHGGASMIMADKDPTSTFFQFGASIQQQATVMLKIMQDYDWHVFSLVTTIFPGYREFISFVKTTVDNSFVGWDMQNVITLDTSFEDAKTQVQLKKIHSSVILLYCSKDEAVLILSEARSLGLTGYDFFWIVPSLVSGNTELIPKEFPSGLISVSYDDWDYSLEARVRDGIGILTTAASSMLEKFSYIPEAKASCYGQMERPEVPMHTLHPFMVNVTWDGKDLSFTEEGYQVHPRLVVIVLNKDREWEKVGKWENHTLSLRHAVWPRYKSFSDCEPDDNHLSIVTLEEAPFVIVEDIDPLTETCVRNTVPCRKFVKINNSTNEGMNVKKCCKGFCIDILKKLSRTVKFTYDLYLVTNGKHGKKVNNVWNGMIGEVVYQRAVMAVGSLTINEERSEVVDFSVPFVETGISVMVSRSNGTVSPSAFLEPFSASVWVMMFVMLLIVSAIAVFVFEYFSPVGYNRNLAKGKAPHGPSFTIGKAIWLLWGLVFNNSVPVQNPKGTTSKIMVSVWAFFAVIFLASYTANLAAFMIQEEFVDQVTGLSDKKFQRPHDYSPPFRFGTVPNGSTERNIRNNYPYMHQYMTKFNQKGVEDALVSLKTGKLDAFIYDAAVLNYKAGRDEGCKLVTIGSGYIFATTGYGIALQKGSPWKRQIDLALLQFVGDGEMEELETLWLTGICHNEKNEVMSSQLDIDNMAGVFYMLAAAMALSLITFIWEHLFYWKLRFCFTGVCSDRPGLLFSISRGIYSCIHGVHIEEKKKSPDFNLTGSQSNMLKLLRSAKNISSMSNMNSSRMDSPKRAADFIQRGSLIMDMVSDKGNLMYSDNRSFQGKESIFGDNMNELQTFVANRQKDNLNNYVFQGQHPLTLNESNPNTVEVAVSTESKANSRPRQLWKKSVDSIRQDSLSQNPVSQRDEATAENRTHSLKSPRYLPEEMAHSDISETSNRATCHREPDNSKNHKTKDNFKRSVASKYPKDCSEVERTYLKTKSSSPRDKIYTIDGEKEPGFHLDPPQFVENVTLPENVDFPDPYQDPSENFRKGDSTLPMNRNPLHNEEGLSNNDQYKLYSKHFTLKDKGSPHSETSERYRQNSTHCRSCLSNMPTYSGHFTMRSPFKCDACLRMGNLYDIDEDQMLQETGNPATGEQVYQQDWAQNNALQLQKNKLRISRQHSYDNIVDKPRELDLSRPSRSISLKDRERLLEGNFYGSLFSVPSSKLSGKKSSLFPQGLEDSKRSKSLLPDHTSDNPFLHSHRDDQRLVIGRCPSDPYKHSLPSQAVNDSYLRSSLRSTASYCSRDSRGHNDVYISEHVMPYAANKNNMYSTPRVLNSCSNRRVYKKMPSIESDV

In the case of `CC(C)(c1ccccn1)[C@@H](N)c1ccccc1` (as salt: HCl) [Example 3, (S)-2-methyl-1-phenyl-2-(pyridin-2-yl)propan-1-amine], the melting point came to 188 °C.
For the molecule `N[C@@H](Cc1ccccn1)c1ccccc1` (single isomer, unassigned) [Example 13, dihydrochloride, reference compound], in series [1] (Table 3), the Ki came out at 2.9 µM and the “Mean Maximum effect” value came out at 89%. In addition, the IC50 in series [1] (Table 3, read-out: Mean IC50) was found to be 6.6 µM. The same molecule had an IC50 in series [2] of 6 µM. Further, the Trapping in series [3] is 53%.
Turning to `CC(C)(c1ccccn1)[C@H](N)c1cccc(F)c1` [Example 5, (R)-1-(3-fluorophenyl)-2-methyl-2-(pyridin-2-yl)propan-1-amine], the IC50 in series [1] (setting [4]) came to 5.5 µM.
Regarding `CC(C)(c1ccccn1)C(N)c1cccc(F)c1.O=C(O)/C=C/C(=O)O` (single isomer, unassigned; stereoisomer 1) [Example 10, 1-(3-fluorophenyl)-2-methyl-2-(pyridin-2-yl)propan-1-amine fumarate salt, stereoisomer 1], in series [1] (Table 3, listed as Ex 10), the affinity, expressed as Ki, was 15 µM and the “Mean Maximum effect” value was determined as 87%. The half-inhibitory concentration (IC50) in series [1] (Table 3, listed as Ex 10, read-out: Mean IC50) was 25 µM.
For `CC(C)(c1ccccn1)[C@@H](N)c1ccccc1` [Example 8, (S)-2-methyl-1-phenyl-2-(pyridine-2-yl)propan-1-amine fumarate salt], in series [1] (setting [5]), the Ki was determined as 3.2 µM and the “Mean Maximum effect” value is given as 90%. Moreover, the IC50 in series [1] (Table 3, listed as Ex 8, fumarate salt, read-out: Mean IC50) is 5.1 µM.
In turn, `N[C@H](Cc1ccccn1)c1ccccc1` (single isomer, unassigned) [Example 14, dihydrochloride, reference compound] gave a half-inhibitory concentration (IC50) in series [2] of 10 µM.
As to `CC(C)(c1ccccn1)C(N)c1cccc(F)c1.O=C(O)/C=C/C(=O)O` (racemic) [Example 9, 1-(3-Fluorophenyl)-2-methyl-2-(pyridin-2-yl)propan-1-amine fumarate salt, racemate], in series [1] (Table 3), affinity was put at a Ki of 1.3 µM and the “Mean Maximum effect” value is recorded as 83%. Moreover, the IC50 in series [1] (Table 3, read-out: Mean IC50) was determined as 3.2 µM.
For `CC(C)(c1ccccn1)[C@@H](N)c1cccc(F)c1` [Example 6, (S)-1-(3-fluorophenyl)-2-methyl-2-(pyridin-2-yl)propan-1-amine], in series [1] (setting [4]), the IC50 amounted to 25 µM.
Molecule `CC(C)(c1ccccn1)C(N)c1ccccc1` (racemic) (as salt: hydrochloride) [Example 1, 2-methyl-1-phenyl-2-(pyridin-2-yl)propan-1-amine] gave a melting point of 188 °C.
The same measure, in the same setting: the value for `CC(C)(c1ccccn1)[C@H](N)c1ccccc1` (as salt: HCl) [Example 2, (R)-2-methyl-1-phenyl-2-(pyridin-2-yl)propan-1-amine] was 188 °C.
`CC(C)(c1ccccn1)C(N)c1cccc(F)c1` (racemic) [Example 4, 1-(3-fluorophenyl)-2-methyl-2-(pyridin-2-yl)propan-1-amine]: the IC50 in series [1] (setting [4]) came to 3.3 µM.
Take `CC(C)(c1ccccn1)[C@@H](N)c1ccccc1` [Example 3, (S)-2-methyl-1-phenyl-2-(pyridin-2-yl)propan-1-amine]: the IC50 in series [1] (setting [4]) was found to be 35 µM; in series [1] (Table 3, listed as Ex 3, read-out: Mean IC50), 5.7 µM; in series [2] (setting [6]), 3 µM. The molecule further had a Ki in series [1] (Table 3, listed as Ex 3) of 1.8 µM. Besides, in series [1] (Table 3, listed as Ex 3), the “Mean Maximum effect” value was 76%. Also, the Trapping in series [3] came to 39%.
Consider `CC(C)(c1ccccn1)C(N)c1cccc(F)c1.O=C(O)/C=C/C(=O)O` (single isomer, unassigned; stereoisomer 2) [Example 11, 1-(3-fluorophenyl)-2-methyl-2-(pyridin-2-yl)propan-1-amine fumarate salt, stereoisomer 2], for which, in series [1] (Table 3, listed as Ex 11), the affinity, expressed as Ki, was 2.5 µM and the “Mean Maximum effect” value turned out to be 97%. Besides, in series [1] (Table 3, listed as Ex 11, read-out: Mean IC50), the IC50 was found to be 4.1 µM.
`CC(C)(c1ccccn1)C(N)c1ccccc1` (racemic) [Example 1, 2-methyl-1-phenyl-2-(pyridin-2-yl)propan-1-amine]: the concentration for half-maximal inhibition (IC50) in series [1] (setting [4]) worked out at 12 µM. In series [1] (Table 3), the inhibition constant (Ki) came out at 4.9 µM and the “Mean Maximum effect” value is 75%. For the same molecule, in series [1] (Table 3, read-out: Mean IC50), the half-inhibitory concentration (IC50) is 12 µM.
Take `CC(C)(c1ccccn1)[C@H](N)c1ccccc1` [Example 2, (R)-2-methyl-1-phenyl-2-(pyridin-2-yl)propan-1-amine]: the concentration for half-maximal inhibition (IC50) was 6.4 µM in series [1] (setting [4]); more than 25 µM in series [1] (Table 3, read-out: Mean IC50); 10 µM in series [2] (setting [6]). Also, the Ki in series [1] (Table 3) is more than 7.9 µM. The “Mean Maximum effect” value in series [1] (Table 3) was determined as 64%.
